# From ChEMBL document CHEMBL1821612, “Discovery of novel antitubercular 3a,4-dihydro-3H-indeno[1,2-c]pyrazole-2-carboxamide/carbothioamide analogues” (Bioorg Med Chem Lett, 2011)
# System: Mycobacterium tuberculosis
# Assay: Antimycobacterial activity against Mycobacterium tuberculosis H37Rv after 2 weeks by BACTEC 460 radiometric method
# Format: functional
# Details: 336 h
row,SMILES,MIC [µM]
1,COc1cc2c(cc1OC)C1=NN(C(=O)Nc3ccc(C)cc3C)C(c3ccncc3)C1C2 (stereo unspecified),10
2,COc1cc2c(cc1OC)C1=NN(C(=O)Nc3ccc(C)cc3C)C(c3ccccc3Cl)C1C2 (stereo unspecified),6.25
3,COc1cc2c(cc1OC)C1=NN(C(=O)Nc3ccc(C)cc3C)C(c3ccc(F)cc3)C1C2 (stereo unspecified),6.25
4,COc1ccc(C2C3Cc4cc(OC)c(OC)cc4C3=NN2C(=O)Nc2ccc(C)cc2C)cc1OC (stereo unspecified),12.5
5,COc1cc2c(cc1OC)C1=NN(C(=O)Nc3ccc(C)cc3C)C(c3ccccc3)C1C2 (stereo unspecified),> 12.5
6,COc1ccc(C2C3Cc4cc(OC)c(OC)cc4C3=NN2C(=O)Nc2ccc(C)cc2C)cc1 (stereo unspecified),> 12.5
7,COc1cc2c(cc1OC)C1=NN(C(=O)Nc3c(C)cccc3C)C(c3ccncc3)C1C2 (stereo unspecified),> 10
8,COc1cc2c(cc1OC)C1=NN(C(=O)Nc3c(C)cccc3C)C(c3ccccc3Cl)C1C2 (stereo unspecified),6.25
9,COc1cc2c(cc1OC)C1=NN(C(=O)Nc3c(C)cccc3C)C(c3ccc(F)cc3)C1C2 (stereo unspecified),6.25
10,COc1ccc(C2C3Cc4cc(OC)c(OC)cc4C3=NN2C(=O)Nc2c(C)cccc2C)cc1OC (stereo unspecified),12.5
11,COc1cc2c(cc1OC)C1=NN(C(=O)Nc3c(C)cccc3C)C(c3ccccc3)C1C2 (stereo unspecified),12.5
12,COc1ccc(C2C3Cc4cc(OC)c(OC)cc4C3=NN2C(=O)Nc2c(C)cccc2C)cc1 (stereo unspecified),> 12.5
13,COc1cc2c(cc1OC)C1=NN(C(N)=S)C(c3ccncc3)C1C2 (stereo unspecified),6.25
14,COc1cc2c(cc1OC)C1=NN(C(N)=S)C(c3ccccc3Cl)C1C2 (stereo unspecified),6.25
15,COc1cc2c(cc1OC)C1=NN(C(N)=S)C(c3ccc(F)cc3)C1C2 (stereo unspecified),3.12
16,COc1ccc(C2C3Cc4cc(OC)c(OC)cc4C3=NN2C(N)=S)cc1OC (stereo unspecified),12.5
17,COc1cc2c(cc1OC)C1=NN(C(N)=S)C(c3ccccc3)C1C2 (stereo unspecified),12.5
18,COc1ccc(C2C3Cc4cc(OC)c(OC)cc4C3=NN2C(N)=S)cc1 (stereo unspecified),12.5
19,NNC(=O)c1ccncc1 [ISONIAZID],0.78
20,CO[C@H]1/C=C/O[C@@]2(C)Oc3c(C)c(O)c4c(O)c(c(/C=N/N5CCN(C)CC5)c(O)c4c3C2=O)NC(=O)/C(C)=C\C=C\[C@H](C)[C@H](O)[C@@H](C)[C@@H](O)[C@@H](C)[C@H](OC(C)=O)[C@@H]1C [RIFAMPIN],0.006

# System: Vero
# Assay: Cytotoxicity against african green monkey Vero cells up to 62.5 ug/mL after 72 hrs by MTT assay
# Format: cell-based
# Details: chlorocebus sabaeus
row,SMILES,Activity
1,COc1cc2c(cc1OC)C1=NN(C(N)=S)C(c3ccc(F)cc3)C1C2 (stereo unspecified),Non-toxic
